{
  "source": "paper PMC7655571",
  "about": "“Acetylcholinesterase inhibition in electric eel and human donor blood: an in vitro approach to investigate interspecies differences and human variability in toxicodynamics” (Archives of Toxicology, 2020)",
  "key": {"[1]": {"settings": "measured or estimated in plasma following human exposure, cited from earlier work"}, "[2]": {"system": "electric eel AChE", "settings": "cited from earlier work"}, "[3]": {"system": "human AChE (red blood cells)", "settings": "source: red blood cells; ref Ajilore et al. [2018]; cited from earlier work"}, "[4]": {"target": "T1, Electrophorus electricus AChE (Electrophorus electricus, UniProt O42275)", "T1 construct": "purchased Sigma-Aldrich C2888", "T1 sequence (O42275 24-633)": "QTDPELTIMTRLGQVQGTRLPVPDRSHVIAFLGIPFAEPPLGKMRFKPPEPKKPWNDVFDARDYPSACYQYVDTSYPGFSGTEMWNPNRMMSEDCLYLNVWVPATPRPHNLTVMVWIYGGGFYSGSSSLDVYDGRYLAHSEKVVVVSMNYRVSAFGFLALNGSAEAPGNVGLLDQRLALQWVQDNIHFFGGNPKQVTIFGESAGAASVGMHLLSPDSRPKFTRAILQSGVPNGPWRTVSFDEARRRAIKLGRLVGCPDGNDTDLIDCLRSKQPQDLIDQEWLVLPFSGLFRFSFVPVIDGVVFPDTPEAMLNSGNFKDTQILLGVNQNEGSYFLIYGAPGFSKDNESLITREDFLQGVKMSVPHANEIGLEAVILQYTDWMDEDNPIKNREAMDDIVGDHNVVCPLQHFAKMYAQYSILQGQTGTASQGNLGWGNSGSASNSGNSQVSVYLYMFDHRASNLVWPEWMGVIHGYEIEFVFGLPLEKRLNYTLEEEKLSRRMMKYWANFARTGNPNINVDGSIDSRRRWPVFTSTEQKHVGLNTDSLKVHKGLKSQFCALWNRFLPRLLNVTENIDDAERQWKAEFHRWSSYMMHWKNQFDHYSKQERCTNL", "assay": "AChE inhibition, electric eel enzyme (Ellman method)", "format": "biochemical", "settings": "for AChE inhibition (in words), electric eel: concentration–response curves", "experimental": "(§1) A 1.3 mM DTNB buffer and a 6 mM acetylthiocholine buffer were prepared in the 50 mM sodium phosphate buffer, a 3 mM ethopropazine buffer was prepared in sterile water and all were stored in aliquots at − 20 °C. A 600 µM ethopropazine buffer was prepared just before use in sodium phosphate buffer.\n(§2) Stock solutions were diluted in methanol to create a dosing series and also stored at − 20 °C. These series were 100× diluted in sodium phosphate buffer to get 1% methanol solutions, resulting in a final concentration of 0.1% methanol in the wells.\nAChE from Electrophorus electricus (electric eel) and freshly drawn (maximum one-day-old), venous EDTA whole blood samples from healthy human donors were used. […] Following incubation for 30 min at room temperature, electric eel AChE was used directly in the enzyme activity assay (see “Enzyme activity assay”). For human blood AChE, 50 µL of the blood was added to a new 48-wells plate and 950 µL Triton buffer was added to these wells (20× dilution).\nBriefly, 20 µL of electric eel AChE or 20 µL of Triton-diluted blood (either exposed or unexposed) and 20 µL ethopropazine were added to 460 µL of DTNB buffer in a 48-wells plate. […] Blank wells contained only DTNB buffer and unexposed enzyme/blood to correct for any background absorbance. To these wells, 100 µL sodium phosphate buffer was added instead of acetylthiocholine after incubation. The final concentration of electric eel AChE was 4 mU/well.\nAll in vitro data were analysed in GraphPad Prism (version 8.4) and are expressed as mean ± standard deviation (SD). For data analysis, vehicle control (0.1% methanol) was set at 100% for both human and electric eel AChE. For human blood, the technical replicates were averaged to perform statistical tests. […] The electric eel AChE data consisted of 3 technical replicates per experiment and 3–4 independent biological replicates."}, "[5]": {"system": "human AChE (blood)", "settings": "source: blood; ref Das et al. ([2006]); cited from earlier work"}, "[6]": {"target": "T2, human blood AChE (Homo sapiens, UniProt P22303)", "T2 construct": "90 µL undiluted blood in a 48-wells plate; from tissue; host or cells: venous EDTA whole blood from healthy human donors, lysed and diluted in Triton X-100 buffer", "T2 sequence (P22303 32-617 isoform P22303-2 limits assumed)": "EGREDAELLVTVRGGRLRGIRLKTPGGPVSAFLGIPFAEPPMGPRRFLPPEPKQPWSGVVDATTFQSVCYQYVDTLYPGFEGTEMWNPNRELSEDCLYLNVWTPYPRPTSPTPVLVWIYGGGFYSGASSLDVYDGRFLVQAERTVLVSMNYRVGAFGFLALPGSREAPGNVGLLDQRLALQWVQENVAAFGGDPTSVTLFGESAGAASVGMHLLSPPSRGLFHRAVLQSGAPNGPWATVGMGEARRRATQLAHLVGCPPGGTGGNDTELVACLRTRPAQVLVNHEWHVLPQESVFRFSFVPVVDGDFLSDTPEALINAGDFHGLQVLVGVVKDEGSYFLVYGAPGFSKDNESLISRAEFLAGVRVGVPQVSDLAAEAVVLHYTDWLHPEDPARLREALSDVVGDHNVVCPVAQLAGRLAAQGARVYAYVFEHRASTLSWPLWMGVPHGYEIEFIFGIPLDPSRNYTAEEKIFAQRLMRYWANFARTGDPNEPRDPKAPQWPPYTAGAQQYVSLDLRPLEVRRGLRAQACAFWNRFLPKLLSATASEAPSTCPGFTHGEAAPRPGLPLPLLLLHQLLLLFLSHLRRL", "assay": "AChE inhibition in human donor whole blood (Ellman method)", "format": "biochemical", "settings": "for IC50: IC50 Human; for AChE inhibition (in words), human blood: concentration–response curves", "experimental": "as §1, §2\nAChE from Electrophorus electricus (electric eel) and freshly drawn (maximum one-day-old), venous EDTA whole blood samples from healthy human donors were used. […] For human blood AChE, 50 µL of the blood was added to a new 48-wells plate and 950 µL Triton buffer was added to these wells (20× dilution).\nBriefly, 20 µL of electric eel AChE or 20 µL of Triton-diluted blood (either exposed or unexposed) and 20 µL ethopropazine were added to 460 µL of DTNB buffer in a 48-wells plate. […] Blank wells contained only DTNB buffer and unexposed enzyme/blood to correct for any background absorbance. To these wells, 100 µL sodium phosphate buffer was added instead of acetylthiocholine after incubation.\nUnexposed, diluted blood (100 µL) was added to a 96-wells plate and 100 µL transformation agent (20 mg potassium ferricyanide, 5 mg potassium cyanide, 100 mg sodium bicarbonate and 50 µL Triton X-100 in 100 mL water) was added. […] Blank wells contained transformation reagent and buffer to correct for any background absorbance.\nAll in vitro data were analysed in GraphPad Prism (version 8.4) and are expressed as mean ± standard deviation (SD). For data analysis, vehicle control (0.1% methanol) was set at 100% for both human and electric eel AChE. For human blood, the technical replicates were averaged to perform statistical tests. Unpaired t tests were used to test for differences between men and women and a one-way ANOVA followed by a post-hoc Tukey test was used to compare data between different age groups (group 1: ≥ 60 years; group 2: 31–60 years; group 3: ≤ 30 years)."}, "[7]": {"target": "human AChE (recombinant enzyme)", "settings": "source: recombinant enzyme; ref Li et al. ([2019]); cited from earlier work"}, "[8]": {"settings": "whole blood, average of 20 donors"}},
  "note": "Where “and” joins values, the source holds several entries; their conditions need not be identical. Equal entries are not always repeated. Entries after “also recorded” stand apart in the source; their conditions may differ. Where two headings read alike, the source gives them in different places.",
  "data": [
    {"smiles": "CCOP(=S)(OCC)Oc1nc(Cl)c(Cl)cc1Cl", "note": "[CPF, Chlorpyrifos]", "values": [
      {"measurement": "In vivo concentration", "setting": "[1]; ref Buratti et al. ([2003])", "result": "≤ 10", "unit": "µM"},
      {"measurement": "In vivo concentration", "setting": "[1]; ref Eyer et al. ([2009])", "result": "≤ 5", "unit": "µM"},
      {"measurement": "In vivo concentration", "setting": "[1]; ref Huen et al. ([2012])", "result": "≤ 5", "unit": "µM"},
      {"measurement": "IC50", "setting": "[2]; ref Assis et al. ([2012])", "result": 0.03, "unit": "µM"},
      {"measurement": "IC50", "setting": "[2]; ref Čolović et al. ([2011])", "result": 4.5, "unit": "µM"},
      {"measurement": "IC50", "setting": "[3]", "result": 200, "unit": "µM"},
      {"measurement": "IC50", "setting": "[4]", "result": "> 0.35", "unit": "µM"},
      {"measurement": "AChE inhibition (in words), electric eel", "setting": "[4]", "result": "do not show any AChE inhibition; also recorded: did not inhibit AChE"},
      {"measurement": "AChE inhibition (in words), electric eel", "setting": "[4]; listed as chlorpyrifos", "result": "did not show inhibition"},
      {"measurement": "IC50", "setting": "[5]", "result": 0.12, "unit": "µM"},
      {"measurement": "IC50", "setting": "[6]; [8]", "result": "> 10", "unit": "µM"},
      {"measurement": "AChE inhibition (in words), human blood", "setting": "[6]", "result": "do not inhibit AChE activity; also recorded: do not show any AChE inhibition; also recorded: did not inhibit AChE"},
      {"measurement": "AChE inhibition (in words), human blood", "setting": "[6]; listed as chlorpyrifos", "result": "did not show inhibition"}
    ]},
    {"smiles": "CCOP(=O)(OCC)Oc1nc(Cl)c(Cl)cc1Cl", "note": "[CPO, Chlorpyrifos-oxon]", "values": [
      {"measurement": "In vivo concentration", "setting": "[1]; ref Eyer et al. ([2009])", "result": "≤ 0.06", "unit": "µM"},
      {"measurement": "In vivo concentration", "setting": "[1]; ref Heilmair et al. ([2008])", "result": "≤ 0.02", "unit": "µM"},
      {"measurement": "IC50", "setting": "[2]; ref Jett et al. ([1999])", "result": 0.01, "unit": "µM"},
      {"measurement": "IC50", "setting": "[2]; ref Meijer et al. ([2014])", "result": 0.01, "unit": "µM"},
      {"measurement": "IC50", "setting": "[2]; ref Čolović et al. ([2011])", "result": 0.03, "unit": "µM"},
      {"measurement": "IC20", "setting": "[4]; 30 min exposure, room temperature", "result": 0.01, "unit": "µM"},
      {"measurement": "AChE inhibition (in words), electric eel", "setting": "[4]", "result": "show inhibition of AChE"},
      {"measurement": "AChE inhibition (in words), human blood", "setting": "[6]", "result": "show inhibition of AChE"},
      {"measurement": "IC20", "setting": "[6]; donor 3, read-out: IC20 Value", "result": 0.1, "unit": "µM"},
      {"measurement": "IC20", "setting": "[6]; donor 4, read-out: IC20 Value", "result": 0.1, "unit": "µM"},
      {"measurement": "IC20", "setting": "[6]; donor 5, read-out: IC20 Value", "result": 0.1, "unit": "µM"},
      {"measurement": "IC20", "setting": "[6]; donor 8, read-out: IC20 Value", "result": 0.1, "unit": "µM"},
      {"measurement": "IC20", "setting": "[6]; donor 11, read-out: IC20 Value", "result": 0.1, "unit": "µM"},
      {"measurement": "IC20", "setting": "[6]; donor 15, read-out: IC20 Value", "result": 0.1, "unit": "µM"},
      {"measurement": "IC20", "setting": "[6]; donor 17, read-out: IC20 Value", "result": 0.1, "unit": "µM"},
      {"measurement": "concentration at which AChE activity is inhibited completely", "setting": "[6]; human donor blood", "result": "≥ 2.9", "unit": "µM"},
      {"measurement": "Coefficient of variation (CV) C1 Human", "setting": "[6]; human variability in AChE inhibition, concentration level C1 (Table S2)", "result": 5.5, "unit": "%"},
      {"measurement": "Coefficient of variation (CV) C2 Human", "setting": "[6]; human variability in AChE inhibition, concentration level C2 (Table S2)", "result": 6.0, "unit": "%"},
      {"measurement": "Coefficient of variation (CV) C3 Human", "setting": "[6]; human variability in AChE inhibition, concentration level C3 (Table S2)", "result": 12, "unit": "%"},
      {"measurement": "Coefficient of variation (CV) C4 Human", "setting": "[6]; human variability in AChE inhibition, concentration level C4 (Table S2)", "result": 99, "unit": "%"},
      {"measurement": "Human uncertainty factor (UF) UF97.5", "setting": "[6]; interindividual differences, concentration closest to the IC20, 95% CI in brackets", "result": "2.2 and 2.2 [1.9–2.7]"},
      {"measurement": "IC20", "setting": "[6]; whole blood, average of 20 donors, read-out: IC20 Human", "result": 0.17, "unit": "µM"}
    ]},
    {"smiles": "CCOP(=S)(OCC)Oc1cc(C)nc(C(C)C)n1", "note": "[DZN, diazinon]", "values": [
      {"measurement": "In vivo concentration", "setting": "[1]; ref Buratti et al. ([2003])", "result": "≤ 10", "unit": "µM"},
      {"measurement": "IC50", "setting": "[2]; ref Assis et al. ([2012])", "result": 0.3, "unit": "µM"},
      {"measurement": "IC50", "setting": "[2]; ref Čolović et al. ([2011])", "result": "> 200", "unit": "µM"},
      {"measurement": "IC50", "setting": "[4]", "result": "> 8.5", "unit": "µM"},
      {"measurement": "AChE inhibition (in words), electric eel", "setting": "[4]", "result": "do not show any AChE inhibition; also recorded: did not inhibit AChE"},
      {"measurement": "AChE inhibition (in words), electric eel", "setting": "[4]; listed as diazinon", "result": "did not show inhibition"},
      {"measurement": "IC50", "setting": "[6]; [8]", "result": "> 10", "unit": "µM"},
      {"measurement": "AChE inhibition (in words), human blood", "setting": "[6]", "result": "do not inhibit AChE activity; also recorded: do not show any AChE inhibition; also recorded: did not inhibit AChE"},
      {"measurement": "AChE inhibition (in words), human blood", "setting": "[6]; listed as diazinon", "result": "did not show inhibition"},
      {"measurement": "IC50", "setting": "[7]", "result": 38, "unit": "µM"}
    ]}
  ]
}
